What is called IC50 is the point on the concentration scale where inhibition reaches its midpoint.

Molecules are shown by their SMILES. Active and inactive are the calls of the source. No rule for the calls is given here.

The target of the test is glucose-6-phosphate dehydrogenase-6-phosphogluconolactonase (Plasmodium falciparum 3D7). Description: PfG6PD enzyme inhibitors, direct NADPH readout, dose response, orthogonal assay, biochemical, end-point NADPH detection (AID 540252). The conditions noted are these: purified PfG6PD enzyme.
As for `CN(C)c1ccc(Cc2cc3c(O)ccc(O)c3cc(Cc3ccc(N(C)C)cc3)c2=O)cc1`, the IC50 was > 80 µM (inactive).
As for `Oc1ccc(-c2cn3c(n2)SCC3)cc1O`, the figure is > 80 µM (inactive); as for `COc1cc(N=c2ssnc2Cl)c(OC)cc1Cl`, 29.2 µM.
As to `Cc1cc(O)c(-c2cc(O)c(C)cc2O)cc1O`, the IC50 was > 80 µM (inactive).
As for `CCn1c(N)c(C(=O)NC)sc1=S`, the figure is > 80 µM (inactive); as for `Cc1ccc(-n2sc3cc(F)ccc3c2=O)c(C)c1`, 12.2 µM; as for `Cc1[nH]c(=S)c(C#N)c(C)c1CCC#N`, > 80 µM (inactive).

The values above are taken from PubChem BioAssay AID540252 (Sanford-Burnham Center for Chemical Genomics, 2011).
